The assay relates to CD2F1 mice, L1210 leukemia ip, survival T/C. Description: NCI In Vivo Anticancer Drug Screen. Data for tumor model L1210 Leukemia (intraperitoneal) in CD2F1 (CDF1) mice. The settings on record: higher = longer survival. The method in brief:
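Tumor-bearing mice (transplanted tumor) were split into treated and vehicle control groups, and the measured endpoint of each treated group was divided by that of its vehicle controls.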

The mark [1] stands for this setting: endpoint: mean survival time, dose: 50.0 mg/kg/injection, schedule: Q01DX009 (ip), vehicle: saline with Tween-80.
Where [2] appears, read: endpoint: mean survival time, dose: 100.0 mg/kg/injection, schedule: Q01DX001 (ip), vehicle: saline with Tween-80.
Setting [3] is: endpoint: mean survival time, dose: 100.0 mg/kg/injection, schedule: Q01DX009 (ip), vehicle: saline with Tween-80.
[4] abbreviates: endpoint: mean survival time, dose: 200.0 mg/kg/injection, schedule: Q01DX001 (ip), vehicle: saline with Tween-80.
[5] abbreviates: endpoint: mean survival time, dose: 200.0 mg/kg/injection, schedule: Q01DX009 (ip), vehicle: saline with Tween-80.
[6] abbreviates: endpoint: mean survival time, dose: 100.0 mg/kg/injection, schedule: Q04DX003 (ip), vehicle: saline with Tween-80.
Where [7] appears, read: endpoint: mean survival time, dose: 200.0 mg/kg/injection, schedule: Q04DX003 (ip), vehicle: saline with Tween-80.
Where [8] appears, read: endpoint: mean survival time, dose: 400.0 mg/kg/injection, schedule: Q01DX009 (ip), vehicle: saline with Tween-80.
Where [9] appears, read: endpoint: mean survival time, dose: 400.0 mg/kg/injection, schedule: Q04DX003 (ip), vehicle: saline with Tween-80.
Where [10] appears, read: endpoint: mean survival time, dose: 25.0 mg/kg/injection, schedule: Q04DX002 (ip), vehicle: saline with Tween-80.
Where [11] appears, read: endpoint: mean survival time, dose: 50.0 mg/kg/injection, schedule: Q04DX002 (ip), vehicle: saline with Tween-80.
[12] abbreviates: endpoint: mean survival time, dose: 25.0 mg/kg/injection, schedule: Q01DX009 (ip), vehicle: saline with Tween-80.

Values joined by “and” are separate entries in the source; they are usually repeats but may differ in a detail not shown here. Equal entries are not always repeated. Toxic doses and inconclusive results are not listed.

Take `O=C(NC/C=C/Br)Nc1cccc2c1CCCC2`: the T/C was 94 % of control under setting [1]; 89 % of control under setting [2]; 99 % of control under setting [3]; 86 % of control under setting [4]; 88 % of control under setting [5].
With `CN(C)[C@@H]1C(=O)C(C(N)=O)=C(O)[C@]2(O)C(=O)C3C(=O)c4c(O)ccc(Cl)c4[C@](C)(O)[C@H]3C[C@@H]12` (some centres not stated), the T/C was 107 % of control (endpoint: mean survival time, dose: 50.0 mg/kg/injection, schedule: Q01DX009 (ip), vehicle: Klucel (hydroxypropylcellulose) (HPC)); 118 % of control (endpoint: mean survival time, dose: 100.0 mg/kg/injection, schedule: Q01DX009 (ip), vehicle: Klucel (hydroxypropylcellulose) (HPC)); 101 % of control (endpoint: mean survival time, dose: 225.0 mg/kg/injection, schedule: Q01DX009 (ip), vehicle: acetone).
Consider `S=C1SCCN1Cc1ccccc1`, for which the T/C runs as follows: under setting [3], 104 % of control; under setting [6], 106 % of control; under setting [5], 101 % of control; under setting [7], 101 % of control; under setting [8], 104 % of control; under setting [9], 101 % of control.
In the case of `CC(C)(C)c1cccc(OS(=O)(=O)c2cccc([N+](=O)[O-])c2)c1`, the T/C by setting is: under setting [3], 94 % of control; under setting [5], 94 % of control; under setting [8], 94 % of control.
As for `N#CCN1CCc2ccccc2C1`, the T/C by setting is: (endpoint: mean survival time, dose: 100.0 mg/kg/injection, schedule: Q04DX003 (ip), vehicle: Klucel (hydroxypropylcellulose) (HPC)) 94 % of control; (endpoint: mean survival time, dose: 200.0 mg/kg/injection, schedule: Q04DX003 (ip), vehicle: Klucel (hydroxypropylcellulose) (HPC)) 94 % of control.
As to `COC(=O)c1[se]c(C(=O)OC)c(-c2ccccc2)c1-c1ccccc1`, the T/C (endpoint: mean survival time, dose: 100.0 mg/kg/injection, schedule: Q01DX001 (ip), vehicle: saline) was 100 % of control; the T/C (endpoint: mean survival time, dose: 200.0 mg/kg/injection, schedule: Q01DX001 (ip), vehicle: saline) was 103 % of control; the T/C (endpoint: mean survival time, dose: 400.0 mg/kg/injection, schedule: Q01DX001 (ip), vehicle: saline) is 103 % of control.
With `COc1ccc(Cl)cc1C/C=N/N(C)C`, the T/C runs as follows: (endpoint: mean survival time, dose: 75.0 mg/kg/injection, schedule: Q01DX001 (ip), vehicle: saline) 103 % of control; (endpoint: mean survival time, dose: 150.0 mg/kg/injection, schedule: Q01DX001 (ip), vehicle: saline) 105 % of control.
For the molecule `CC(O)CN=C(N)C(N)=NCC(C)O` (configuration not stated), the T/C runs as follows: (endpoint: mean survival time, dose: 12.5 mg/kg/injection, schedule: Q04DX002 (ip), vehicle: saline with Tween-80) 108 % of control; under setting [10], 101 % of control; under setting [11], 97 % of control.
For `C1=N/C=C\C=C/c2ccc[n+](CCCCC[n+]3ccccc3-c3ccccn3)c21`, the T/C is, setting by setting: (endpoint: mean survival time, dose: 7.5 mg/kg/injection, schedule: Q01DX001 (ip), vehicle: saline) 98 % of control; (endpoint: mean survival time, dose: 7.5 mg/kg/injection, schedule: Q04DX003 (ip), vehicle: saline) 108 % of control; (endpoint: mean survival time, dose: 15.0 mg/kg/injection, schedule: Q01DX001 (ip), vehicle: saline) 98 % of control; (endpoint: mean survival time, dose: 15.0 mg/kg/injection, schedule: Q04DX003 (ip), vehicle: saline) 100 % of control; (endpoint: mean survival time, dose: 30.0 mg/kg/injection, schedule: Q01DX001 (ip), vehicle: saline) 98 % of control; (endpoint: mean survival time, dose: 30.0 mg/kg/injection, schedule: Q04DX003 (ip), vehicle: saline) 102 % of control.
On to `c1ccc2nc(N3CCCCC3)ccc2c1`, for which the T/C was 94 % of control under setting [10]; 94 % of control under setting [11]; 94 % of control (endpoint: mean survival time, dose: 100.0 mg/kg/injection, schedule: Q04DX002 (ip), vehicle: saline with Tween-80).
In the case of `Cc1ccc(NC(=O)c2ccccc2C(=O)O)cc1`, the T/C is, setting by setting: under setting [6], 101 % of control; under setting [7], 97 % of control; under setting [9], 95 % of control.
`CN1CCc2cc(O)cc3c2C1Cc1ccc(O)c(O)c1-3` (configuration not stated): the T/C (endpoint: mean survival time, dose: 25.0 mg/kg/injection, schedule: Q04DX003 (ip), vehicle: DMSO) is 101 % of control; the T/C (endpoint: mean survival time, dose: 50.0 mg/kg/injection, schedule: Q04DX003 (ip), vehicle: DMSO) was 101 % of control; the T/C (endpoint: mean survival time, dose: 100.0 mg/kg/injection, schedule: Q04DX003 (ip), vehicle: DMSO) is 101 % of control; the T/C (endpoint: mean survival time, dose: 200.0 mg/kg/injection, schedule: Q04DX003 (ip), vehicle: DMSO) is 102 % of control; the T/C (endpoint: mean survival time, dose: 200.0 mg/kg/injection, schedule: Q04DX003 (ip), vehicle: water) was 105 % of control; the T/C (endpoint: mean survival time, dose: 400.0 mg/kg/injection, schedule: Q04DX003 (ip), vehicle: water) is 102 % of control. Also, the T/C (endpoint: mean survival time, dose: 600.0 mg/kg/injection, schedule: Q04DX003 (ip), vehicle: water) is 102 % of control.
Turning to `O=C1c2ccccc2C(=O)N1CCBr`, the T/C runs as follows: under setting [2], 102 % of control; under setting [4], 109 % of control; (endpoint: mean survival time, dose: 400.0 mg/kg/injection, schedule: Q01DX001 (ip), vehicle: saline with Tween-80) 111 % of control.
With `O=C1C2C3C=CC(C2C(=O)N1CO)C1C2C(=O)N(CO)C(=O)C2C31` (configuration not stated), the T/C reads like this: (endpoint: median survival time, dose: 6.25 mg/kg/injection, schedule: Q01DX009 (ip), vehicle: water) 104 % of control; (endpoint: median survival time, dose: 12.5 mg/kg/injection, schedule: Q01DX009 (ip), vehicle: water) 107 % of control; (endpoint: median survival time, dose: 25.0 mg/kg/injection, schedule: Q01DX009 (ip), vehicle: water) 124 % of control; (endpoint: median survival time, dose: 50.0 mg/kg/injection, schedule: Q01DX009 (ip), vehicle: water) 190 % of control and 214 % of control; (endpoint: median survival time, dose: 83.3 mg/kg/injection, schedule: Q01DX009 (ip), vehicle: water) 100 % of control.
As for `O=C1C2C(C(=O)N1c1ccccc1)C1c3ccccc3C2C2CCCCN21` (configuration not stated), the T/C was 95 % of control (endpoint: mean survival time, dose: 12.5 mg/kg/injection, schedule: Q04DX003 (ip), vehicle: Klucel (hydroxypropylcellulose) (HPC)); 101 % of control (endpoint: mean survival time, dose: 25.0 mg/kg/injection, schedule: Q04DX003 (ip), vehicle: Klucel (hydroxypropylcellulose) (HPC)); 93 % of control (endpoint: mean survival time, dose: 50.0 mg/kg/injection, schedule: Q04DX003 (ip), vehicle: Klucel (hydroxypropylcellulose) (HPC)).
For `N#CSc1ccc2c(ccn2C2OCC(O)C(O)C2O)c1` (configuration not stated), the T/C was 93 % of control (endpoint: mean survival time, dose: 12.5 mg/kg/injection, schedule: Q01DX005 (ip), vehicle: other); 93 % of control (endpoint: mean survival time, dose: 25.0 mg/kg/injection, schedule: Q01DX005 (ip), vehicle: other); 101 % of control (endpoint: mean survival time, dose: 50.0 mg/kg/injection, schedule: Q01DX005 (ip), vehicle: other).
As for `COc1cc(/C=N/N2CCCCC2)cc(OC)c1OC`, the T/C is, setting by setting: under setting [6], 104 % of control; under setting [7], 95 % of control; under setting [9], 111 % of control.
Regarding `CC1=CC(=O)C(C(C)C)=CC1=O`, the T/C under setting [12] is 101 % of control, the T/C under setting [1] was 108 % of control and the T/C under setting [6] was 88 % of control.
On to `COc1ccc(C(C#N)Nc2ccccc2)cc1` (configuration not stated), for which the T/C was 106 % of control under setting [3]; 97 % of control (endpoint: mean survival time, dose: 100.0 mg/kg/injection, schedule: Q04DX003 (ip), vehicle: saline sonified); 104 % of control under setting [5]; 89 % of control (endpoint: mean survival time, dose: 200.0 mg/kg/injection, schedule: Q04DX003 (ip), vehicle: saline sonified); 103 % of control under setting [8]; 103 % of control (endpoint: mean survival time, dose: 400.0 mg/kg/injection, schedule: Q04DX003 (ip), vehicle: saline sonified).
As to `COc1cc2c(cc1O)CCCCC2O` (configuration not stated), the T/C (endpoint: mean survival time, dose: 50.0 mg/kg/injection, schedule: Q01DX009 (ip), vehicle: other) is 107 % of control; the T/C (endpoint: mean survival time, dose: 100.0 mg/kg/injection, schedule: Q01DX009 (ip), vehicle: other) was 100 % of control; the T/C (endpoint: mean survival time, dose: 200.0 mg/kg/injection, schedule: Q01DX009 (ip), vehicle: other) was 92 % of control.
On to `CS/C(N)=N\S(=O)(=O)c1ccc(NC(C)=O)cc1`, for which the T/C by setting is: under setting [3], 98 % of control; under setting [5], 95 % of control; under setting [8], 106 % of control.
In the case of `CCCc1ccc(C(C)=O)cc1`, the T/C is 112 % of control (endpoint: mean survival time, dose: 75.0 mg/kg/injection, schedule: Q04DX002 (ip), vehicle: saline with Tween-80) and 100 % of control (endpoint: mean survival time, dose: 150.0 mg/kg/injection, schedule: Q04DX002 (ip), vehicle: saline with Tween-80).
For `COC(=O)Nc1ccccc1OS(=O)(=O)N(C)C`, the T/C is, setting by setting: under setting [12], 95 % of control; under setting [1], 104 % of control; under setting [3], 96 % of control and 103 % of control.
For `CCN(CC)CC(=O)Nc1c(C)cccc1C`, the T/C reads like this: under setting [12], 95 % of control; under setting [1], 95 % of control; under setting [3], 89 % of control; under setting [6], 95 % of control.

The values above are taken from PubChem BioAssay AID256 (DTP/NCI, 2004).
